Entries after “also recorded” stand apart in the source; their conditions may differ.
Tests used:
[1] = test system: GBM cells; conditions: FCCP added after 2-3 OMF stimulation cycles
Protocol: In cultured GBM156 cells 10-minute stimulation/pause cycles were used to provoke a MPT response.
Oxygen electrode data collection: A thermostatically controlled (37° C.), water-jacketed, glass-walled, Clark-type O2 electrode was used throughout. […] The oncoscillator was attached to the end of a microphone stand and was held perpendicular to the outer glass wall of the electrode, so that there was an air gap of ≈5 mm between the two devices. There was a degree of crosstalk between to stirring bar of the O2-electrode chamber and the oncoscillator; this interaction manifests itself as jumps or drops in the apparent O2 concentrations at the beginning or the end of OMF stimulation. […] The stirrer velocity was therefore optimized to negate the interaction with the oncoscillator.
Tumor culture preparations: GBM and meningioma tumors were taken at the time of (first) excision and given the laboratory ID. They were washed in PBS, chopped with a scalpel and homogenized in a BeadBug™ homogenizer using 1.5 mm Zirconium beads, in an equal volume of PBS. […] The homogenates were grown in DMEM with 20% FBS, 1U GlutaMax™, sodium pyruvate (1 mM), penicillin (100 U/ml), and streptomycin (100 mg/ml). […]
Cells were grown to confluency, counted, harvested using trypsin, washed in ice-cold PBS and stored on ice at 8×10^9 cells/ml. O2 consumption of cells was measured in PBS, 10 mM glucose, 37° C. […]

[2] = test system: GBM cells; experiment: Surviving cell count after OMF stimulation in presence of drugs; type: cell-based, human
Text: Histograms of the percentage of cells plotted against the normalized fluorescence intensity (ratio of intensity to the width of the forward scatter) measured by flow cytometry of H2DCF-stained GBM (U87) and normal astroglial (SVGp12) cells reveal nearly a two-fold increase in GBM cells due to OMF, but a ˜50% decrease in astroglial cells (FIG. 44). To test whether cell death is caused by the OMF-induced increase in ROS, a potent antioxidant Trolox was used to counteract it, while measuring the decrease in GBM cell count due to 4 h exposure to OMF. Conversely, it also was asked whether OMF potentiates the cell killing effect of a known ROS inducer, benzylamine. […] Magnetically influenced RPM plays a role in ubiquitously expressed flavoproteins called cryptochromes, which can also generate ROS when perturbed by magnetic fields. Cryptochrome agonists have been recently shown to inhibit cancer stem cell proliferation in GBM. This alternative possibility for generation of ROS by OMF was tested by counting surviving cells after two 4 h sessions of OMF stimulation over 24 h in the presence and absence of a cryptochrome antagonist, KS15. […] According to a certain setup, cells grown in 96-well cell culture plates were OMF stimulated, sham stimulated or unstimulated for 4 h inside humidified CO2 incubator. Paraformaldehyde (4% w/v in PBS) was used for fixation and DAPI was used for staining nuclei. […] Live and dead cell images were captured at 10× magnification on a Nikon Eclipse TE2000-E microscope and analyzed with NIS-Element program or a Carl Zeiss Axio Observer microscope with an onstage incubation chamber having a humidified 5% CO2 supply. […] […] To do this surviving cells were counted after two 4 h sessions of OMF stimulation over 24 h in the presence and absence of a cryptochrome antagonist, KS15.

[3] = test system: rat liver mitochondria (RLM); experiment: O2 electrode trace of rat liver mitochondria metabolizing succinate under OMF stimulation; type: biochemical; conditions: 5 μM bongkrekic acid, RLM metabolizing 5 mM succinate
Protocol: FIG. 18A illustrates an apparatus 1800 used to perform the procedures outlined above. The apparatus 1800 includes oncoscillator component and generates OMF by rotating an N52 permanent Neodymium rare earth magnet. The oncoscillator assembly is held by a microphone stand, placed next to the water jacketed O2 electrode with a 5 mm air gap, halting vibration transfer. The oncoscillator is positioned so that the center of 1 ml media chamber is exposed to a magnetic field of ≈8 mT. The rotation of the oncoscillator magnet has a small artifactual effect on the O2 electrode stirrer bar giving rise to an apparent drop or rise in O2 levels.
The effect of OMF on energized rat liver mitochondria (RLM) was examined. […] After the addition of succinate the slow ‘State 4’ consumption of O2 (≈10 e^−s^−1) that is typical of RLM oxidizing succinate in the absence of ADP (‘State 3’) or uncouplers is observed. In state 4 the electron flux from succinate dehydrogenase, the bc1 complex and cytochrome c oxidase is controlled by the presence of a large membrane potential (ΔΨ) and ΔpH, estimated to be […] and 11 mV, respectively, under similar conditions.
When OMF stimulation is initiated, respiration is completely halted for the whole 5-min OMF stimulation period. […] After this second stimulation regime ended, respiration restarted at the rate recorded prior to the stimulation cycle. […]

[4] = test system: DIPG cells; experiment: O2 consumption of primary DIPG cells under OMF stimulation cycles; type: cell-based, human; conditions: 5 μM bongkrekic acid
Text: Before OMF stimulation the O2 consumption rate is ≈40 pMol O2 sec^−1 million cells^−1, similar to that seen in Chinese hamster ovary cells (100%). During the first five minutes of OMF stimulation cycle, respiration rate falls by a third, and during the first fifteen-minute pause this respiration rate remains at 65% of the initial rate. During the second stimulation cycle, respiration falls to only 45% of the control rate. When the cycle ends the rate rises to 58%, but over the 15-minute pause the flux slows down. During the third stimulation cycle, O2 consumption is held at half the initial rate, but when stimulation ceases a rapid increase in respiration is observed, which increases over the first 10 min and then begins to slow.
The large increase in mitochondrial electron flux that is observed at the end of the third cycle is consistent with a relatively homogenous population of cells, all undergoing MPT simultaneously. To test if this is the correct interpretation of the data, the experiment was rerun, but this time in the presence of 5 μM bongkrekic acid (FIG. 20B). Blocking the ANT with bongkrekic acid slows the steady state mitochondrial electron flux to 55% of that seen in its absence (both rates arc normalized to 100% in each panel for case of interpretation). […]
O2 consumption of cells was measured in PBS, 10 mM glucose, 37° C. […]

[5] = test system: high-grade meningioma cells; experiment: O2 consumption of primary high-grade meningioma cells under OMF stimulation cycles; type: cell-based, human; conditions: cells pretreated with bongkrekic acid
Text: FIG. 21 follows the format of FIG. 20, but this time primary high-grade meningioma cells were used, showing that OMF stimulation cycles cause MPT. In these cells stimulation causes a 75% drop in the electron flux, and after the end of the first cycle, the cells maintain only half their initial rate (FIG. 21A). During the second cycle of stimulation mitochondrial respiration is completely halted, and as soon as the stimulation stops there is a burst of O2 uptake ≥6 times the initial steady state level. This rate drops in a first order manner.
Oxygen electrode data collection: A thermostatically controlled (37° C.), water-jacketed, glass-walled, Clark-type O2 electrode was used throughout. […] There was a degree of crosstalk between to stirring bar of the O2-electrode chamber and the oncoscillator; this interaction manifests itself as jumps or drops in the apparent O2 concentrations at the beginning or the end of OMF stimulation.
The homogenates were grown in DMEM with 20% FBS, 1U GlutaMax™, sodium pyruvate (1 mM), penicillin (100 U/ml), and streptomycin ([…]).
O2 consumption of cells was measured in PBS, 10 mM glucose, 37° C. 2 μM carbonyl cyanide trifluoromethoxyphenylhydrazone.

In the case of N#CC(C#N)=NNc1ccc(OC(F)(F)F)cc1 [FCCP, carbonyl cyanide-p-trifluoromethoxyphenylhydrazone], the “O2 consumption after addition of FCCP” value [1] is reported as “did not lead to an increase in O2 consumption”.
With CCO[C@H](Cc1cccc(/C(C)=N/OCc2ccc(Br)cc2)c1)C(=O)O [KS15] the “effect on the decrease in cell count produced by OMF” value ([2]; two 4 h sessions of OMF stimulation over 24 h, presence vs absence of KS15) was “significant partial attenuation”.
For Cc1c(C)c2c(c(C)c1O)CCC(C)(C(=O)O)O2 (stereo not drawn) [Trolox], the “counteraction of the decrease in GBM cell count due to OMF-induced ROS” value ([2]; 4 h exposure to OMF, antioxidant Trolox) was “predictions are confirmed”.
For NCc1ccccc1 [benzylamine], the “potentiation by OMF of the cell killing effect of the ROS inducer” value ([2]; 4 h exposure to OMF, benzylamine) was “predictions are confirmed”.
For CO[C@H](C/C=C\C=C\CC/C=C/C[C@H](C)/C=C/C(=C\C(=O)O)CC(=O)O)/C(C)=C\C=C(/C)C(=O)O [bongkrekic acid], the “mitochondrial 'State 4' flux” value [3] was “inhibits”, the oncoscillator-induced permeability transition ([3]; OMF stimulation) was “completely abolishes” and the “steady state mitochondrial electron flux, % of that seen in absence of bongkrekic acid” value ([4]; 2×10^6/ml DIPG cells in glucose supplemented PBS) was 55%. The “OMF-induced permeability transition (increase in respiration rate)” value ([4]; repeated OMF stimulation cycles) was “no increase in rate indicative of the permeability transition; also recorded: blocking the permeability” and the “OMF-induced increase in O2 uptake rate (MPT)” value [5] was “abolished; also recorded: blocks the permeability”.

— patent US12521564B2, “Method and apparatus for oncomagnetic treatment” (THE METHODIST HOSPITAL, priority 2020, dated 2026)
